Blank lines part the entries; values can stand above or below the compound they belong to.
Key:
[1] = test system: tau biosensor cells; assay: Tau biosensor cell assay (FRET flow cytometry, confocal microscopy), seeding capacity; type: cell-based; conditions: for Integrated FRET Density (IFD): FRET flow cytometry, 2 experimental repeats, 3 technical replicates
Source text: Based on Furman and Diamond, 2017. FRET and Flow Cytometry Assays to Measure Proteopathic Seeding Activity in Biological Samples. Caroline Smet-Nocca (ed.), Tau Protein: Methods and Protocols, Methods in Molecular Biology, vol. 1523, DOI 10.1007/978-1-4939-6598-4_23, © Springer Science+Business Media New York 2017).
Methods: FRET flow cytometry Biosensor cell assay (Furman and Diamond, 2017) was used to assess the seeding capacity of fibrillar R2 compared to R2 monomer, and fibrillar rPHF compared to 4R2N monomer
Methods: cells were transduced with transduction buffer, R2 monomer, rPHFs or R2 fibrils following protocol by Furman and Diamond (2017).

[2] = target: T1, monomeric Tau 4R2N (Homo sapiens, UniProt P10636); assay: R2-seeded Tau aggregation with commercially available inhibitors, ThS fluorescence and EM; type: biochemical; conditions: Tau 4R2N 5 μM + R2 seeds 5 μM; inhibitor 1, 10, 100 μM; end timepoint ThS
T1 construct: made in house; host or cells: E. coli (pET-28a(+))
T1 sequence (P10636 1-441 isoform P10636-8): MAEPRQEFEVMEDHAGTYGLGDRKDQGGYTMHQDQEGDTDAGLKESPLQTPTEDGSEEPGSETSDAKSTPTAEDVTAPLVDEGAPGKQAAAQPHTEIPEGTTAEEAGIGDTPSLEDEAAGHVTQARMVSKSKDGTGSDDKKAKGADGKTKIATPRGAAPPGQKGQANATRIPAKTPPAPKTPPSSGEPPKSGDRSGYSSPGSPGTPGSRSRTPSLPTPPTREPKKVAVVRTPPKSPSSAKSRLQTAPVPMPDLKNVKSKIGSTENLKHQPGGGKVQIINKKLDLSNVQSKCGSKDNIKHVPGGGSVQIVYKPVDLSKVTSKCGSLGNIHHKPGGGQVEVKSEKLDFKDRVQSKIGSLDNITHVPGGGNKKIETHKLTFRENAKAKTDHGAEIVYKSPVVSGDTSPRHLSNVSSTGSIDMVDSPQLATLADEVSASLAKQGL
Protocol: The aggregation kinetic is followed using ThS fluorescence. a. The list and structure of the 5 inhibitors used in this proof of concept assay. b. As an example, the full kinetic of Tau incubated in presence of R2 seed with LMTX at 1 μM (orange), 10 μM (grey) or 100 μM (yellow) or in absence of inhibitor (blue). c. End timepoint ThS value of Tau incubated in presence of R2 with the five selected inhibitors at 1 μM (orange), 10 μM (grey) or 100 μM (yellow) or in absence of inhibitor (blue). The inhibition is dose-dependent, the inhibitors show various inhibition potencies (e.g. low for BSc3094, high for LMTX). […] Corresponding EM micrographs confirm the absence of significant fibrilization in the presence of most inhibitors. The presence of oligomeric species corroborate the hypothesis that Tau is locked in OFF-pathway conformations. The scale bars are 500 [nm].
To do so, R2 seeds were incubated with monomeric Tau protein in presence or absence of a set commercially available know Tau aggregation inhibitors (ATPZ, LMTX, Pyrochatecol violet, BSc3094 and myricetin, FIG. 18 a) at three different conventions (1 μM, 10 μM and 100 μM). The aggregation kinetic was followed using ThS fluorescence. As an example, the full kinetic of Tau incubated in presence of R2 seed, with LMTX at the three different concentration is presented in FIG. 18 b. […]

[3] = target: T1, monomeric Tau 4R2N; assay: Seeding of monomeric Tau with R2 or R2-derived peptide seeds, EM; type: biochemical; conditions: 37° C.; for seeding of monomeric Tau / formation of rPHFs (EM): 10 μM sonicated peptide fibrils + 10 μM monomeric Tau
Protocol: The seeding of Tau 4R2N (SEQ ID No: 5) by R2 was performed in presence of 10 μM of sonicated peptide fibrils, added to 10 μM of the monomeric soluble Tau, at 37° C. under stagnant conditions. It was observed that R2 is capable of seeding the aggregation of full length Tau (FIG. 3).
Having determined which of the R2-derived peptides are capable of aggregation and characterized their aggregation kinetics and fibril morphology, it was next investigated whether some of the R2-derived peptides could induce the seeding of Tau and K18, and whether it would lead to the formation of rPHFs fibrils. In order to reach this goal, fibrils of the peptides that were able to aggregate (R2 dC5, dC9, dC10, dC15 K6N and dPHF6*) were sonicated and added to monomeric Tau or K18 at molar ratios of 10 μM: 10 μM (i.e. under the same experimental conditions as those leading to R2-seeding of Tau and K18).
Unless stated otherwise, 100 μM R2 or R2-derived peptide were dissolved in 10 mM phosphate, 50 mM NaF, 0.5 mM DTT and pH-adjusted to 7.4. The solution was then vortexed and the supernatant was incubated in presence of heparin sodium salt at molar ratio 1:4 (heparin:peptide) (Applichem GmbH) at 37° C., either with or without constant orbital agitation (1000 rpm, Peqlab, Thriller).
The obtained seeds were added at a final concentration of 10 μM to 10 μM of monomeric Tau or K18 in 10 mM phosphate, 50 mM NaF, 0.5 mM DTT and incubated 37° C.

[4] = test system: hippocampal rat primary neurons; assay: Immunocytochemistry (ThS) in transfected rat primary hippocampal neurons; type: cell-based; conditions: 1 μM, 3 days
Protocol: Next, the findings of the present invention were validated using a cellular model, the hippocampal rat primary neurons. Primary neurons were transfected with full length Tau and K18 ΔK280, and cells were treated with R2, R2-seeded Tau or R2-seeded K18 at a concentration of 1 μM, […]. After 3 days, the coverslips were processed for ICC. […] Although the intracellular ThS signal is relatively high, it is difficult to distinguish between uptake of exogenous material and seeding of endogenous and/or overexpressed Tau/K18 ΔK280, especially since the concentration used here is relatively high (1 μM).
Hippocampi from PO WT rat (OFA SD, Charles River) were dissociated and triturated in papain-containing medium. After centrifugation at 400 g for 2 min, neurons were plated in MEM supplemented with 10% fetal calf serum (FCS) on Cultrex™ poly-L-lysine (Trevigen)-coated coverslips at 1.5×10^5 cells/ml (6 well-plates, 3 ml per well). After 4 h, medium was replaced with Neurobasal/B27 medium. Viral infections were performed two weeks, and transfection one week after plating.
One week old hippocampal rat primary neurons seeded on coverslips coated with Cultrex poly-L-lysine were transfected with Tau or K18 ΔK280 ([…]) using lipofectamine 2000 reagent (Invitrogen). 24 h after transfection, cells were treated with 1 μM monomeric R2, R2 seeds, R2-seeded Tau, R2-seeded K18 and further incubated for 1 or 3 days. Cells were then fixed in 100% methanol at −20° C. for 10 min and rinsed three times in PBS. After blocking with 3% BSA in PBST for 30 min at RT, cells were incubated with ThS (Sigma) at 0.1 mg/ml in PBS for 10 min and rinsed 5 times with 80% Ethanol and once with PBS. Coverslips were then incubated with primary antibodies for 2 h at RT (see Table M.1). The cells were rinsed five times with PBST and subsequently incubated with the secondary antibodies at a dilution of 1/800 in PBST and DAPI at 2 μg/ml (Life technologies). The cells were washed five times in PBST, once in PBS and rinsed in MilliQ water before mounting in PVA medium with DABCO (Sigma). The cells were then examined with confocal laser-scanning microscope (LSM 700, Zeiss) and analyzed using Zen software.

[5] = neurons transfected with K18 ΔK280
[6] = neurons transfected with WT Tau 4R2N

Compound: 4R2N monomer: longest adult human Tau isoform, 441 amino acid, SEQ ID No 5, monomeric
Integrated FRET Density (IFD) [1]: 0

inhibition potency [2]: low
Compound: O=C(NNc1nc(-c2ccc([N+](=O)[O-])cc2)cs1)c1ccc2nc[nH]c2c1 [BSc3094]

Compound: CN(C)c1ccc2c(c1)Sc1cc(N(C)C)ccc1N2.CS(=O)(=O)O.CS(=O)(=O)O [LMTX]
inhibition potency [2]: high

seeding of monomeric Tau / formation of rPHFs (EM) [3]: allowed the formation of rPHFs
Compound: R2 extended and mutated to the SGGG motif: R2 PGGG-extended with P301S mutation (SGGG), SEQ ID No 4 (VQIINKKLDLSNVQSKCGSKDNIKHVSGGG; listed as Homo sapiens)

Compound: R2-seeded K18: K18 (SEQ ID No 6) fibrils formed by seeding with R2 seeds
ThS signal in transfected neurons [4, 5]: strong ThS signal
localisation of ThS signal [4, 5]: intracellular
ThS signal in transfected neurons [4, 6]: strong ThS signal
localisation of ThS signal [4, 6]: intracellular

incubation time until PHFs-like fibrils observed by EM ([3]; 10 μM R2 seeds + 10 μM Tau 4R2N, stagnant): less than 4 h
seeding of monomeric Tau / formation of rPHFs (EM) [3]: allowed the formation of rPHFs
Compound: R2: Tau repeat peptide R2, SEQ ID No 1

Compound: rPHF fibrils: recombinant PHFs: Tau fibrils formed by seeding monomeric Tau with R2 seeds
Integrated FRET Density (IFD) [1]: increase in the IFD
aggregates in transduced biosensor cells (confocal microscopy) ([1]; transduction per Furman and Diamond): bright aggregated puncta
ThS signal in transfected neurons [4, 5]: strong ThS signal
localisation of ThS signal [4, 5]: intracellular
ThS signal in transfected neurons [4, 6]: strong ThS signal
localisation of ThS signal [4, 6]: intracellular

Source: patent US11629175B2, “Method for preparing PHFS-like Tau aggregates” (ECOLE POLYTECHNIQUE FEDERALE DE LAUSANNE (EPFL), priority 2018, dated 2023)
